Reference: ChEMBL document CHEMBL5291721, “A preclinical secondary pharmacology resource illuminates target-adverse drug reaction associations of marketed drugs” (Nat Commun, 2023)

Tests used:
[1] = biological target: Melanocortin receptor 4 (Homo sapiens, UniProt P32245)
[2] = biological target: T1, Progesterone receptor (Homo sapiens, UniProt P06401); assay type: functional
T1 sequence (P06401 whole entry): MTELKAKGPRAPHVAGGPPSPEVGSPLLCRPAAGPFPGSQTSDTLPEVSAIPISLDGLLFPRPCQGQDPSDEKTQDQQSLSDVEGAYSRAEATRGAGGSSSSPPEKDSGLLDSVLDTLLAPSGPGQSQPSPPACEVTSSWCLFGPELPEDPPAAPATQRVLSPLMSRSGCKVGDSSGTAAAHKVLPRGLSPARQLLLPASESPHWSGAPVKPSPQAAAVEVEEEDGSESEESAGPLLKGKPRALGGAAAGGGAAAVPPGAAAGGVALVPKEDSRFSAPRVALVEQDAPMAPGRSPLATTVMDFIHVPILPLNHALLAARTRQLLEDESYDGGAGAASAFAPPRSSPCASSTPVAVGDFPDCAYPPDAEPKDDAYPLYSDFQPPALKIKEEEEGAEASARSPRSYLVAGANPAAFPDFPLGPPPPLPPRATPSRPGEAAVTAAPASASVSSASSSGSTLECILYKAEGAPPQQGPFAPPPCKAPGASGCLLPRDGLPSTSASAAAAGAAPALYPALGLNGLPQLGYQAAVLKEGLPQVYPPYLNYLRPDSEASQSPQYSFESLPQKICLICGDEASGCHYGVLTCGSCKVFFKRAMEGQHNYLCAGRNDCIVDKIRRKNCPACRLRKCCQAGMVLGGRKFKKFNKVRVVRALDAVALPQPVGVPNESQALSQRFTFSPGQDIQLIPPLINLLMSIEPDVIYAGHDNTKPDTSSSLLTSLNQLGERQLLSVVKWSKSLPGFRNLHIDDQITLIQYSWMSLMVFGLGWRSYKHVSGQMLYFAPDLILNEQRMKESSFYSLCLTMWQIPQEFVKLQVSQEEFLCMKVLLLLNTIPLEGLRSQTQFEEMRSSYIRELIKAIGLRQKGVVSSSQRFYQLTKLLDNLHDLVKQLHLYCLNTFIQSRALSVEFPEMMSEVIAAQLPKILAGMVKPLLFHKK

[3] = biological target: Kappa-type opioid receptor (Homo sapiens, UniProt P41145)
Chain of Kappa-type opioid receptor (P41145 whole entry): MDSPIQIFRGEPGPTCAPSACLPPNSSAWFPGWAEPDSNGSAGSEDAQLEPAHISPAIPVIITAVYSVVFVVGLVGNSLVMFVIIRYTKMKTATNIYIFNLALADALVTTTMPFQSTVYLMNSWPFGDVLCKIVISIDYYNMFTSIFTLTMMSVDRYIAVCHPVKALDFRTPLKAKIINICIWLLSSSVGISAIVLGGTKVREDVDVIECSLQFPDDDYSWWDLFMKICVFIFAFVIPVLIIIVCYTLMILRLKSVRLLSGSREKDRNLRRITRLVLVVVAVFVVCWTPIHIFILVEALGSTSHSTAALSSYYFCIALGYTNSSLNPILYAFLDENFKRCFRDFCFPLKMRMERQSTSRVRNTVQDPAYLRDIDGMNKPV

[4] = biological target: Melanocortin receptor 3 (Homo sapiens, UniProt P41968)
Chain of Melanocortin receptor 3 (P41968 whole entry): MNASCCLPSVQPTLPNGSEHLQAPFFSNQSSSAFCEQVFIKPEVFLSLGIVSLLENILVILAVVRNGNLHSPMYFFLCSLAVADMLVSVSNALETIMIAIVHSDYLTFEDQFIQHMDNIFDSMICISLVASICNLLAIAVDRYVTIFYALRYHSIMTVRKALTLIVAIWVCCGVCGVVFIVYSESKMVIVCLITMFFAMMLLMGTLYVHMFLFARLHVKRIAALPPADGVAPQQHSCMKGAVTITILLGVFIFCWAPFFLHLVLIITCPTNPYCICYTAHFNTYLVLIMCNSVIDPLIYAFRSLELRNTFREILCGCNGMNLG

[5] = biological target: T2, B2 bradykinin receptor (Homo sapiens, UniProt P30411)
T2 sequence (P30411 whole entry): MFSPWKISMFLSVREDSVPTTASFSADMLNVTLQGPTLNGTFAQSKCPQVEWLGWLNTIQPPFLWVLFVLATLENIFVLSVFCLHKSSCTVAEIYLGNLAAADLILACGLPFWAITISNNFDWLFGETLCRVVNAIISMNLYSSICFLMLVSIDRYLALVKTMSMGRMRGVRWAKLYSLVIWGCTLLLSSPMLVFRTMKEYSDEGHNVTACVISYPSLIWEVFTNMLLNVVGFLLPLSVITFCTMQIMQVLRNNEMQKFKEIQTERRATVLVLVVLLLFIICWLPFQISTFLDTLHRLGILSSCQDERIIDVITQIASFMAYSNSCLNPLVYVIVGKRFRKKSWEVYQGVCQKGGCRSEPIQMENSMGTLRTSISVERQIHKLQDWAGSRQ

[6] = biological target: 3',5'-cyclic-AMP phosphodiesterase 4D (Homo sapiens, UniProt Q08499); assay type: functional
Chain of 3',5'-cyclic-AMP phosphodiesterase 4D (Q08499 whole entry): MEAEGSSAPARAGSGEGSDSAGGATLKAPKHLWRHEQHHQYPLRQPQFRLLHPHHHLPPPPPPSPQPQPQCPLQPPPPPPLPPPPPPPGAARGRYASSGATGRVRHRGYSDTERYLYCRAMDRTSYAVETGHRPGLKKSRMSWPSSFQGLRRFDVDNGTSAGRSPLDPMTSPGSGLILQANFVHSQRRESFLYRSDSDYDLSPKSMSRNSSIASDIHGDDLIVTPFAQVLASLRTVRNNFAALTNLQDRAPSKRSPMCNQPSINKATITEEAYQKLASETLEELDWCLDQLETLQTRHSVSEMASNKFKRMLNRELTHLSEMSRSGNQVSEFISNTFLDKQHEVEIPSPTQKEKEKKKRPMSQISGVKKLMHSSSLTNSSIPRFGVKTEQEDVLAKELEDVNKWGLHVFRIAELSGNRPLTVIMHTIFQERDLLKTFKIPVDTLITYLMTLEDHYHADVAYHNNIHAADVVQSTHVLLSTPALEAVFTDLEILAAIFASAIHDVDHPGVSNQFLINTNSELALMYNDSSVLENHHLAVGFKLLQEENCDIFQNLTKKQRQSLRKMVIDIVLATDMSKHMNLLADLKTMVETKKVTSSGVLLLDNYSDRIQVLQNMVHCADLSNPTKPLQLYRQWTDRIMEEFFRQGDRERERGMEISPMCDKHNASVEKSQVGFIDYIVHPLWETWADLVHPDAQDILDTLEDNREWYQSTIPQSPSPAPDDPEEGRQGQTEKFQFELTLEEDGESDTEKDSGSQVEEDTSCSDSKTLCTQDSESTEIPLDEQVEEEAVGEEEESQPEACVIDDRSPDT

[7] = biological target: Cannabinoid receptor 1 (Homo sapiens, UniProt P21554)
Chain of Cannabinoid receptor 1 (P21554 whole entry): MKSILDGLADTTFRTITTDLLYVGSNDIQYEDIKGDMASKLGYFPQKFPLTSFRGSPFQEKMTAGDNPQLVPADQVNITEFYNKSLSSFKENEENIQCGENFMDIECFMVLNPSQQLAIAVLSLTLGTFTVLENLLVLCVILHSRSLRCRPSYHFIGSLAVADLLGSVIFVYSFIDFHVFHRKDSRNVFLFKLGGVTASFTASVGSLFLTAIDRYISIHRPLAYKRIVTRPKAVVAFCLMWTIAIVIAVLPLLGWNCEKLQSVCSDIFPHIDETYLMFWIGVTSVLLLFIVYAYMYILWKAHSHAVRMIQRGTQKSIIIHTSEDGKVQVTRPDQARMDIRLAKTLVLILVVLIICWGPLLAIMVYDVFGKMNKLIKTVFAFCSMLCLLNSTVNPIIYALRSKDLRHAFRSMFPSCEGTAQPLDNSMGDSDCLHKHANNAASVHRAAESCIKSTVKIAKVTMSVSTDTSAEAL

[8] = biological target: Vasopressin V1a receptor (Homo sapiens, UniProt P37288)
Chain of Vasopressin V1a receptor (P37288 whole entry): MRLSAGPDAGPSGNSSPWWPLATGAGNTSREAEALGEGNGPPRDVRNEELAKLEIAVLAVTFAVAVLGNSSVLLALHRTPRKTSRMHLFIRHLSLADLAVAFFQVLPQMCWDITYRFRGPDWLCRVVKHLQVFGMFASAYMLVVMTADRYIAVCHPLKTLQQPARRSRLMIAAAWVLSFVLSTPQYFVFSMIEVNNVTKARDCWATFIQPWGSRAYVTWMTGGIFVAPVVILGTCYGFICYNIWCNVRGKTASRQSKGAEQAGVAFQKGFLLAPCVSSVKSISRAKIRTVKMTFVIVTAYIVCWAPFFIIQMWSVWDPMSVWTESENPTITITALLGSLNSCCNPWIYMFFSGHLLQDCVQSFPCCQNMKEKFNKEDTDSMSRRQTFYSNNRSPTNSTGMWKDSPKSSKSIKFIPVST

[9] = biological target: T3, 5-hydroxytryptamine receptor 1A (Homo sapiens, UniProt P08908); assay type: functional, cell-based
T3 sequence (P08908 whole entry): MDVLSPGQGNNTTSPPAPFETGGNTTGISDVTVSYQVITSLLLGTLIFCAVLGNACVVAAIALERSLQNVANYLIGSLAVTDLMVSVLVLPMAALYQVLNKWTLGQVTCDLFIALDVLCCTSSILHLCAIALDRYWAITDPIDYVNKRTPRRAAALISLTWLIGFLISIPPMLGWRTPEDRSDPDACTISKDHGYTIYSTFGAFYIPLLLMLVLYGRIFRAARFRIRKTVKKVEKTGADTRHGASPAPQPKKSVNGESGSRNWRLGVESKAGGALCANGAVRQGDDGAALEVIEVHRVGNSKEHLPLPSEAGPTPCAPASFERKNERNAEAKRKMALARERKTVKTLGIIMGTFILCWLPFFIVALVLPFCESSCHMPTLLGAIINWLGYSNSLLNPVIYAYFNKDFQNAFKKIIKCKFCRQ

[10] = biological target: 5-hydroxytryptamine receptor 2A (Homo sapiens, UniProt P28223); assay type: functional, cell-based
Chain of 5-hydroxytryptamine receptor 2A (P28223 whole entry): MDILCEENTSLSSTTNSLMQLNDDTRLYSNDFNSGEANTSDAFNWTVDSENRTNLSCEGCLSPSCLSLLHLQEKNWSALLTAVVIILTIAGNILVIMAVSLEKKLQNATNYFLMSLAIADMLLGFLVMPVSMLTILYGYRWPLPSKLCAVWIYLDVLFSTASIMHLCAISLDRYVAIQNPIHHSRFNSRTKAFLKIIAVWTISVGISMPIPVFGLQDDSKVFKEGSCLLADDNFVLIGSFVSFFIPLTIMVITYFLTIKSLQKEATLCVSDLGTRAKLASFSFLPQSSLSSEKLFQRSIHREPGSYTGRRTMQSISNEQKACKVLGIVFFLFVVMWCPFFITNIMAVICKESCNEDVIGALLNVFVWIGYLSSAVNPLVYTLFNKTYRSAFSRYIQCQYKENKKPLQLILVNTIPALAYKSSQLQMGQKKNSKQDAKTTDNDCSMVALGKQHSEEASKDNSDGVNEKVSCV

[11] = biological target: T3, 5-hydroxytryptamine receptor 1A; assay type: functional, cell-based; remark: listed apart in the source
[12] = biological target: Beta-2 adrenergic receptor (Homo sapiens, UniProt P07550); assay type: functional, cell-based
Chain of Beta-2 adrenergic receptor (P07550 whole entry): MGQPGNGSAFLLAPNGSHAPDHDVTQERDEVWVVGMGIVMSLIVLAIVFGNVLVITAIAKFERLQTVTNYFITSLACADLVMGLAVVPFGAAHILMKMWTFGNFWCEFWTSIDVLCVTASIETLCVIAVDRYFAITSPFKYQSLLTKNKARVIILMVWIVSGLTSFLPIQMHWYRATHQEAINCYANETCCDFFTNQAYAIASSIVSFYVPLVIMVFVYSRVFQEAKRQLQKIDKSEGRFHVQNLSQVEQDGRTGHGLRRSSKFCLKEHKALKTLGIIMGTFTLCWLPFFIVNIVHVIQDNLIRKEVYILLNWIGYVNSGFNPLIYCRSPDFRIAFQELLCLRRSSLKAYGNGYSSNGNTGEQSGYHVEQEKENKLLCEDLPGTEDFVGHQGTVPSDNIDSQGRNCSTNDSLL
Further: assay procedure not described here.

Chain of Melanocortin receptor 4 (P32245 whole entry): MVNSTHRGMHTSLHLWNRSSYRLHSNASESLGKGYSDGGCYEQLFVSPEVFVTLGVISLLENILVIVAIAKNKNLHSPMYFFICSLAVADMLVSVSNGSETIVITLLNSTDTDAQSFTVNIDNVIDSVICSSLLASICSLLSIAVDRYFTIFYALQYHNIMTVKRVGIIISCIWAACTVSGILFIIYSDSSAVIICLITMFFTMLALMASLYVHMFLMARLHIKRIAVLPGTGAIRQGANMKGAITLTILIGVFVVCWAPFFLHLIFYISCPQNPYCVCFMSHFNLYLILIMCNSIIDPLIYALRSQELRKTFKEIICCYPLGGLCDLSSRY

Compound | AC50 [1] | AC50 [2] | AC50 [3] | AC50 [4] | AC50 [5] | AC50 [6] | AC50 [7] | AC50 [8] | AC50 [9] | AC50 [10] | AC50 [11] | AC50 [12]
CC(C)CN(C[C@@H](O)[C@H](Cc1ccccc1)NC(=O)O[C@H]1CCOC1)S(=O)(=O)c1ccc(N)cc1 | > 30 µM | > 10 µM | > 10 µM | > 30 µM | > 30 µM | > 30 µM | 11.4 µM | > 30 µM | > 10 µM |  |  | 
OCC(O)COc1ccc(Cl)cc1 (centres undefined) | > 10 µM | > 10 µM | > 10 µM | > 10 µM | > 10 µM | > 30 µM | > 10 µM | > 10 µM | > 10 µM | > 10 µM | > 10 µM | 
COc1ccc(-n2nc(C(N)=O)c3c2C(=O)N(c2ccc(N4CCCCC4=O)cc2)CC3)cc1 [APIXABAN] |  | > 30 µM | > 30 µM | > 30 µM | > 30 µM | > 30 µM |  | > 30 µM | > 30 µM |  |  | > 30 µM
C[C@@H](Cc1ccccc1)N(C)Cc1ccccc1 [BENZPHETAMINE] | > 10 µM | > 10 µM | 1.97 µM | > 10 µM | > 10 µM | > 30 µM | > 10 µM | > 10 µM | > 10 µM | 22 µM |  | 
O=C(O)CCCC[C@@H]1SC[C@@H]2NC(=O)N[C@@H]21 [BIOTIN] | > 10 µM |  | > 10 µM | > 10 µM | > 10 µM | > 30 µM | > 10 µM |  | > 10 µM |  | > 10 µM | 
CN(Cc1ccc(C(C)(C)C)cc1)Cc1cccc2ccccc12 [BUTENAFINE] | > 10 µM | > 30 µM | > 10 µM | > 10 µM | > 10 µM | > 30 µM | > 10 µM |  | > 10 µM |  | > 10 µM | 
C=C(c1ccccc1OCc1cccc(Cl)c1)n1ccnc1 [CROCONAZOLE] | > 30 µM | > 30 µM | 1.03 µM | > 30 µM | > 30 µM | 7.1 µM |  | > 30 µM | > 10 µM |  | 24 µM | 
CC1CC(OC(=O)C(O)c2ccccc2)CC(C)(C)C1 (centres undefined) [CYCLANDELATE] | > 10 µM | > 30 µM | > 10 µM | > 10 µM | > 10 µM | > 30 µM | > 10 µM |  | > 10 µM |  | > 10 µM | 
CCCCCCOC(=O)NC(=N)c1ccc(NCc2nc3cc(C(=O)N(CCC(=O)OCC)c4ccccn4)ccc3n2C)cc1 [DABIGATRAN ETEXILATE] |  | > 30 µM | > 30 µM | > 30 µM | > 30 µM | > 30 µM |  | > 30 µM | > 30 µM | > 30 µM |  | > 30 µM
COC(=O)[C@H]1[C@H]2C[C@@H]3c4[nH]c5ccccc5c4CCN3C[C@H]2C[C@@H](OC(=O)c2cc(OC)c(OC)c(OC)c2)[C@@H]1OC [DESERPIDINE] | 8.6 µM | > 30 µM | 13.7 µM | > 30 µM | > 30 µM | > 30 µM | > 10 µM | > 30 µM | > 10 µM | > 10 µM | > 10 µM | 
Cc1cnc(Nc2ccc(OCCN3CCCC3)cc2)nc1Nc1cccc(S(=O)(=O)NC(C)(C)C)c1 [FEDRATINIB] | > 30 µM |  | 15.4 µM | > 30 µM | > 30 µM | 0.22 µM | > 10 µM | > 30 µM |  |  |  | 
CC(=O)[C@@]1(O)CC[C@H]2[C@@H]3C[C@H](C)C4=CC(=O)C=C[C@]4(C)[C@@]3(F)[C@@H](O)C[C@@]21C [FLUOROMETHOLONE] | > 10 µM |  | > 10 µM | > 10 µM | > 10 µM | > 30 µM | > 10 µM |  | > 10 µM |  |  | 
CC1Cc2ccccc2N1NC(=O)c1ccc(Cl)c(S(N)(=O)=O)c1 (centres undefined) [INDAPAMIDE] | > 30 µM |  | > 10 µM | > 30 µM | > 30 µM | > 10 µM | > 10 µM |  | > 30 µM |  |  | > 30 µM
CC(=O)N1CCN(c2ccc(OCC3COC(Cn4ccnc4)(c4ccc(Cl)cc4Cl)O3)cc2)CC1 (centres undefined) [KETOCONAZOLE] | > 10 µM | > 10 µM | > 10 µM | > 10 µM | > 10 µM | > 10 µM | > 10 µM | > 10 µM | > 10 µM |  |  | 
O=C(C[S+]([O-])Cc1ccco1)NC/C=C\COc1cc(CN2CCCCC2)ccn1 (centres undefined) [LAFUTIDINE] | > 10 µM | > 10 µM | > 10 µM | > 10 µM | > 10 µM | > 30 µM | > 10 µM | > 10 µM | > 30 µM | > 30 µM | > 30 µM | 
CCC1(CC)C(=O)NC(=O)N(C)C1=O [METHARBITAL] | > 10 µM | > 10 µM | > 10 µM | > 10 µM | > 10 µM | > 30 µM | > 10 µM | > 10 µM | > 10 µM | > 10 µM | > 10 µM | 
Nc1cc(N2CCCCC2)nc(N)[n+]1[O-] [MINOXIDIL] | > 30 µM |  | > 10 µM | > 30 µM | > 30 µM | > 30 µM | > 10 µM |  | > 30 µM |  |  | > 30 µM
CC(C)(C)NCC(O)COc1cccc2c1CC(O)C(O)C2 (centres undefined) [NADOLOL] | > 10 µM | > 10 µM | > 10 µM | > 10 µM | > 10 µM | > 30 µM | > 10 µM |  | > 10 µM |  |  | 
Nc1ccc(S(=O)(=O)Nc2ncccn2)cc1 [SULFADIAZINE] | > 10 µM | > 10 µM | > 10 µM | > 10 µM | > 10 µM | > 30 µM | > 10 µM |  | > 10 µM |  | > 10 µM | 
CC(C(=O)O)c1ccc(C(=O)c2ccccc2)s1 (centres undefined) [TIAPROFENIC ACID] | > 10 µM | > 10 µM | > 10 µM | > 10 µM | > 10 µM | > 30 µM | > 10 µM | > 10 µM | > 10 µM | > 30 µM | > 10 µM | > 30 µM
CCN(C(C)=O)c1cccc(-c2ccnc3c(C#N)cnn23)c1 [ZALEPLON] | > 30 µM | > 30 µM | > 10 µM | > 30 µM | > 30 µM | > 30 µM |  |  | > 10 µM |  | > 10 µM | 
TEPRENONE | > 30 µM |  | 17 µM | > 30 µM | > 30 µM | > 30 µM |  | > 30 µM | > 30 µM |  | > 30 µM | 
